Test results taken from patent US12384774B2, “Polymorph of CDK9 inhibitor and preparation method for polymorph and use thereof” (GenFleet Therapeutics (Shanghai) Inc., priority 2019, dated 2025).
In brackets after ≈: the same amount, converted by molar mass. Structures can show the parent of a compound that is named as a salt. Where two headings read alike, the source gives them in different places.

What was measured:
[1] = Stability test in a 60° C. drying oven (impurity, content, XRPD); assay type: physicochemical; conditions: for Content % / Total impurity %: 60° C. drying oven
Description: The crystal form A of the fumarate of the compound of formula (I) prepared in Example 9 and the crystal form 1 of the maleate of the compound of formula (I) prepared in Example 2 were placed in a 60° C. drying oven for different days (0 days, 7 days, 21 days). Samples were collected and detected to investigate the stability of the crystal forms.
The amorphous form of the free base of the compound of formula (I) was subjected to the same stability study as above-mentioned.
The crystal form 2 of the maleate of the compound of formula (I) prepared in Example 3 was placed in a 60° C. drying oven, and samples were taken and tested for different days (0 days, 7 days, 14 days and 30 days) to investigate the stability of the crystal form.

[2] = Solubility test in PBS buffers of different pH, water and normal saline at room temperature; assay type: physicochemical; conditions: for solubility: thermodynamic from solid
Description: Weigh about 50 mg of the crystal form 1 of the maleate of the compound of formula (I) prepared in Example 2, which was added into different bottles. Then PBS buffers with different pH values were prepared. Each of them was added in batches with a small amount into each of the above bottles at room temperature till the crystal form in each bottle was just dissolved. The total amount of the solvent was recorded and the solubility was calculated.
The amorphous form of the free base of the compound of formula (I) was subjected to the same solubility study as above-mentioned.

[3] = Hygroscopicity test by dynamic moisture adsorption instrument (DVS); assay type: physicochemical; conditions: for weight increasement due to moisture absorption: 25° C.
Description: Experimental method: this test was carried out by a dynamic moisture adsorption instrument. Weigh 10 mg of a solid sample, which was placed on a balance. The humidity in the sample room was controlled through the program. The sample was placed under the same temperature and different humidity conditions for 7 days, then the quality change of the tested sample was measured with relative humidity. Detection procedure: the humidity change was 0%-95%-0%; the test temperature was 25° C.
The amorphous form of the free base of the compound of formula (I) was subjected to the same hygroscopicity study as above-mentioned. […] When the relative humidity is 95%, the weight increasement due to moisture absorption can reach 9.5%, and the sample after moisture absorption is not easy to desorb.

[4] = Stability test in a 60° C. drying oven (impurity, content, XRPD); assay type: physicochemical; conditions: for Content % / Total impurity %: 60° C. drying oven, 21 days; for change in content or in the characteristic peaks of the XRPD pattern: after 21 days at high temperature (60° C.)
[5] = test system: Acute myeloid leukemia cells MV-4-11; test: Cell proliferation inhibition, CellTiter-Glo; assay type: cell-based; conditions: MV-4-11 cells
Description: Weigh 5.61 mg of the crystal form 1 of the maleate of the compound of formula (I) prepared in Example 2, which was dissolved it in 74.7 μL of DMSO.
Configure 1000× compound storage plate (or called 1000× storage medicine plate): the 100 mM compound storage solution was diluted with DMSO. The starting concentration was 10 mM and 9 concentration gradients (th concentration of the storage solution was 10 mM, 3 mM, 1 mM, 0.3 mM, 0.1 mM, 0.03 mM, 0.01 mM, 0.001 mM and 0.0001 mM respectively) were set. The compound storage plate was sealed with a sealing tape, and stored in a refrigerator at −20° C. for later use.
Acute myeloid leukemia cells MV-4-11 (purchased from ATCC) were selected and seaded into a 96-well plate (140 μL per well) at a density of 5000/well and cultured overnight in a incubator with 37° C., 5% CO2.
1000×storage medicine plates were taken out and melt at room temperature while avoiding light. Then prepare 15× intermediate medicine plates (78.8 μL of medium and 1.2 μL of medicine-containing DMSO storage solution), which were mixed well. 10 μL of the medicine-contained medium (15×) was added into the 96-well cell plates (the final concentration was 10 μM, 3 μM, 1 μM, 0.3 μM, 0.1 μM, 0.03 μM, 0.01 μM, 0.001 μM and 0.0001 μM, respectively, and the final concentration of DMSO was […]), which were gently patted to well-mixed, then put it in a incubator with 37° C., 5% CO2, and continued to incubate for 24 hours.
Then the CellTiter-Glo method was used to detect vitality of the cell under the conditions of each drug concentration, and the rate of cell proliferation inhibition under the corresponding conditions was calculated.

[6] = Hygroscopicity observation on the hydrochloride (Comparative Example 2); assay type: physicochemical; conditions: solid in crystal form obtained with hydrochloric acid
Description: Similarly, by using the method described in Example 1 or Example 9, the according salt of the compound of formula (I) were prepared with the hydrochloric acid instead of the maleic acid or the fumaric acid.

[7] = amorphous form, 60° C., 7th and 14th day

Content % ([1]; 0 day)	Total impurity % ([1]; 0 day)	Content % ([1]; 7 days)	Total impurity % ([1]; 7 days)	Content % ([1]; 14 days)	Total impurity % ([1]; 14 days)	Solubility (S, mg/mL) ([2]; PBS pH 6.5, room temperature)	Solubility (S, mg/mL) ([2]; PBS pH 7.0, room temperature)	Solubility (S, mg/mL) ([2]; PBS pH 7.5, room temperature)	Solubility (S, mg/mL) ([2]; water, room temperature)	hygroscopicity (in words) ([3]; environment humidity RH=60%)	weight increasement due to moisture absorption ([3]; environment humidity RH=60%)	Content % [4]	Total impurity % [4]	change in content or in the characteristic peaks of the XRPD pattern [4]	SMILES	other results
99.50%	0.50%	98.42%	1.58%	97.44%	2.56%	about 15.10 mg/mL	about 12.5 mg/mL	about 0.44 mg/mL	about 0.1 mg/mL						COC[C@@H](C)N[C@H]1CC[C@H](Nc2cc(-c3csc(NCC4(C#N)CCOCC4)n3)c(Cl)cn2)CC1 [free base of the compound of formula (I), 4-(((4-(5-chloro-2-(((1R,4r)-4-(((R)-1-methoxypropyl-2-yl)amino)cyclohexyl)amino)pyridin-4-yl)thiazol-2-yl)amino)methyl)tetrahydro-2H-pyran-4-carbonitrile]	change in the character (appearance) [1, 7]: changes from a yellow solid to a hard gelatinous substance; solubility ([2]; PBS buffer, pH 7.2, aqueous buffer, PBS pH 7.2, room temperature, read-out: Solubility (S, mg/mL)): ~10.1 mg/mL; solubility compared with crystal form 1 of the maleate (in words) ([2]; same experiment conditions, amorphous free base): significant lower solubility; hygroscopicity (in words) ([3]; environment humidity higher than 60%, amorphous form): quite strong hygroscopicity; weight increasement due to moisture absorption ([3]; relative humidity 95%): 9.5%; stability (in words) [4, 7]: poor stability
															COC[C@@H](C)N[C@H]1CC[C@H](Nc2cc(-c3csc(NCC4(C#N)CCOCC4)n3)c(Cl)cn2)CC1 [listing 1 of 2 here]	solubility ([2]; PBS buffer, pH 6, aqueous buffer, PBS 6.0, room temperature, read-out: Solubility (S, mg/mL)): 41 mg/mL (≈ 79 mM); solubility ([2]; PBS buffers of different pH, water and normal saline, aqueous buffer, PBS 6.0-7.5, water, normal saline, read-out: solubility in each of the above-mentioned solvents (summary)): 30 to 60 mg/mL (≈ 57.8 to 116 mM); solubility ([2]; normal saline, saline or isotonic, normal saline, room temperature, read-out: Solubility (S, mg/mL)): 50 mg/mL (≈ 96.3 mM); IC50 ([5]; Homo sapiens, MV4-11, 24 hours incubation, CellTiter-Glo, read-out: absolute half inhibitory concentration (ABsIC50)): 32 nM
															COC[C@@H](C)N[C@H]1CC[C@H](Nc2cc(-c3csc(NCC4(C#N)CCOCC4)n3)c(Cl)cn2)CC1 [listing 2 of 2 here]	hygroscopicity (in words) [6]: very hygroscopic
99.91%	0.09%	99.88%	0.12%			45 mg/mL	57 mg/mL	62 mg/mL	31 mg/mL	weak	about 1%	99.86%	0.14%	basically no change	COC[C@@H](C)N[C@H]1CC[C@H](Nc2cc(-c3csc(NCC4(C#N)CCOCC4)n3)c(Cl)cn2)CC1 [crystal form 1 of the maleate of the compound of formula (I)]	effect on cell growth ([5]; concentration range 0.0001 μM to 0.01 μM): no significant changes in cell growth; effect on cell growth ([5]; concentration range 0.03 μM to 10 μM): significant inhibitory effect
99.13%	0.87%	98.56%	1.44%	97.73%	2.27%										COC[C@@H](C)N[C@H]1CC[C@H](Nc2cc(-c3csc(NCC4(C#N)CCOCC4)n3)c(Cl)cn2)CC1 [crystal form 2]	characteristic peaks of the XRPD pattern ([4]; after 14 days at high temperature (60° C.)): basically unchanged
99.38%	0.62%	99.31%	0.69%							weak	about 1%	99.22%	0.78%	basically no change	COC[C@@H](C)N[C@H]1CC[C@H](Nc2cc(-c3csc(NCC4(C#N)CCOCC4)n3)c(Cl)cn2)CC1 [crystal form A of the fumarate of the compound of formula (I]	
